Tests used:
[1] = system: IL-6 secretion, bone marrow-derived mouse dendritic cells; experiment: IL-6 secretion by TNF-α stimulated bone marrow dendritic cells (ELISA); assay type: cell-based; conditions: different concentrations of ascr #7
Method: (§1) Bone marrow was extracted from femurs of C57BL/6 mice (6-12 weeks of age). These mice were euthanized by CO2 inhalation and their femurs were removed. After removing the remaining flesh from the bone, they were cut at the metaphysis. Bone marrow was flushed out using a syringe filled with RPMI. The extracted marrow was further broken down by resuspension with syringe. The mixture was centrifuged and the pellet was re-suspended in RPMI. […] 20 ng of GM-CSF was added to each well. At day 3, and every 3 days thereafter, the media was replaced. Cells were used for experiments between day 7-9.
(§2) Bone marrow dendritic cells were collected between day 7-9 of culture. Cells were washed twice and counted. Ascr #7 in water or RPMI were placed in corresponding wells, and are allowed to dry. 10^6 cells were then plated in each well in a 24 well culture plate. Cells were left to incubate with ascr #7 for 5 minutes. Following the brief incubation, different TNFα was added to the wells. These bone marrow dendritic cells were then cultured at 37° C. for 18-72 hours. Cells were collected via the pellet generated by centrifuge. The supernatant was also preserved. EBioscience ELISA kits was used to determine the concentration of different cytokines present in each well.

[2] = system: T cell transfer model of colitis, Rag -/- mice; experiment: T cell transfer model of colitis (IBD); assay type: in vivo, mouse; conditions: 300 ng ascr #7 i.p. every 3 days, day 14 to 28
Method: A T cell transfer model of colitis where 10^6CD4+ T cells were transferred to adult Rag −/− mice was used, and either saline or 300 ng ascr #7 were administered via intraperitoneal injection every 3 days between day 14 and day 28. On day 28, the mice were euthanized and colon analysis was performed. n=3 mice per group. […] The normal mouse colon is long, skinny, and has discrete fecal pellets. The diseased mouse colon, with IBD, has a shortened, dilated colon, with diarrhea instead of discrete fecal pellets.

[3] = system: ovalbumin model of murine asthma (C57BL/6 mice); experiment: Ovalbumin model of murine asthma; assay type: in vivo, mouse
Method: Adult C57BL/6 mice were sensitized by administering 2 ug OVA (Sigma-Aldrich) and 1 mg alum (Thermo) with 50 ng ascr #7 or saline, via intraperitoneal injection, on Day 0 and 14. On day 24, the mice were challenged with intranasal administration of saline containing 100 μg OVA, under isoflurane anesthesia. Histologic sections were stained with H&E or PAS to score for eosinophilia, goblet cell metaplasia, and airway hyper-reactivity. Mice were also placed in a computer controlled small animal ventilator (SCIREQ) to score for airway hyper-reactivity following methacholine challenge. […] Animals with asthma have higher resistance of flow, which would be represented as higher “RL” values in FIG. 3B. […] Lungs were collected, postmortem, and then sectioned and stained to show the presence of eosinophils and mucus. […] In FIG. 3C, the asthmatic mouse lung, here labeled “Control” has a large number of mucus and eosinophils that surround the bronchioles and occupy the alveolar space; wherein the thick barriers would prohibit oxygen from easily diffusing.

[4] = system: NOD/ShiLtJ mouse model of Type 1 Diabetes; experiment: NOD/ShiLtJ mouse model of Type 1 Diabetes; assay type: in vivo; conditions: 100 ng ascr #7 i.p. three times a week
Method: The NOD/ShiLtJ (Jackson Laboratories) mouse model of Type 1 Diabetes was used These mice typically develop hyperglycemia around 17-18 weeks of life. Either saline or 100 ng ascr #7 was administered three times a week via intraperitoneal injection. Blood glucose levels were determined in the same mouse over time, via the collected of tail vein blood (as shown in FIG. 4A) at multiple time points. […] 8 mice were injected with saline and 8 mice were injected with ascr #7, as described above.

[5] = system: IL-1β secretion, bone marrow-derived mouse dendritic cells; experiment: IL-1β secretion by TNF-α stimulated bone marrow dendritic cells (ELISA); assay type: cell-based; conditions: different concentrations of ascr #7
Method: as §1, §2

IL-6 receptor = target: T1, IL-6 receptor (Homo sapiens, UniProt P08887); conditions: cited from earlier work
T1 construct: host or cells: human patients (endogenous receptor)
T1 sequence (P08887 20-468): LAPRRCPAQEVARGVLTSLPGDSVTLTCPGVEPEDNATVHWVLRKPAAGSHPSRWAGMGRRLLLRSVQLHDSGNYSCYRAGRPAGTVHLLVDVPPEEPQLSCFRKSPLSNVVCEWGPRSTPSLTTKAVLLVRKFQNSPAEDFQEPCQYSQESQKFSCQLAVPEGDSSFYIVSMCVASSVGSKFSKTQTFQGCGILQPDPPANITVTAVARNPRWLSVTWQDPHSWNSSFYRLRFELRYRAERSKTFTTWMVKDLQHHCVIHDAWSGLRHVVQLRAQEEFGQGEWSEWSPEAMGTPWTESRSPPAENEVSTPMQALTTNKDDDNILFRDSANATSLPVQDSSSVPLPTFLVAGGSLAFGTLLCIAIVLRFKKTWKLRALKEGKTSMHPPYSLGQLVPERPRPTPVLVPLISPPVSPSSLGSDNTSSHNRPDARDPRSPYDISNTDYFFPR

[6] = ovalbumin model, 50 ng ascr #7 i.p.

For `C[C@H](CC/C=C/C(=O)O)O[C@@H]1O[C@@H](C)[C@H](O)C[C@H]1O` [ascr #7], the IL-6 level ([1]; dendritic cells not stimulated with TNF-α, FIG. 1 left) was “very low levels of IL-6”, the “secreted IL-6 level” value ([1]; dendritic cells stimulated with TNF-α, FIG. 1 right) was “reduces these levels significantly” and the “development of abnormal lumen dilation” value [2] was “markedly reduces”. The “development of colon shortening” value [2] was “markedly reduces”, the development of diarrhea [2] was “markedly reduces” and the “colon appearance on day 28” value ([2]; FIG. 5) was “normal appearing colon, which is long, skinny, and contains discrete fecal pellets”. The “lung histology (boundaries between bronchioles and alveolar space; eosinophils and mucus)” value ([3]; 50 ng ascr #7 i.p. Day 0 and 14, stained lung sections, FIG. 3C) was “thin boundaries between the bronchioles and the alveolar space, comparable to the normal mice”, the “resistance of air flow (RL)” value ([3]; 50 ng ascr #7 i.p. Day 0 and 14 with OVA/alum, methacholine challenge, FIG. 3B) was “low resistance of air flow, with comparable levels to normal mice” and the “development of airway hyper-reactivity” value [3, 6] was “reduces”. The development of eosinophilia [3, 6] was “reduces”, the “development of goblet cell metaplasia” value [3, 6] was “reduces” and the “blood glucose levels, individual mice” value ([4]; throughout 18 weeks, FIG. 4B) was “significantly reduced blood glucose levels”. For the same compound, the “blood glucose levels, group average vs untreated group” value ([4]; week 18, FIG. 4C) was “significantly lower blood glucose levels”, the conversion to hyperglycemia ([4]; NOD mice) was “delays conversion to hyperglycemia” and the IL-1β level ([5]; dendritic cells not stimulated with TNF-α, FIG. 2 left) was “very low levels of IL-1β”. For the same compound, the “secreted IL-1β level” value ([5]; dendritic cells stimulated with TNF-α, FIG. 2 right) was “reduces these levels significantly”.

For “Tocilizumab: a humanized anti-IL-6 receptor antibody”, the “clinical activity of atopic dermatitis” value (IL-6 receptor; 3 patients with severe atopic dermatitis, Navarini et al. 2011) is listed as “decreased clinical activity”, the “relapse rates, neuropathic pain and general fatigue, neuromyelitis optica” value (IL-6 receptor; after one year of treatment, Araki et al. 2014) is listed as “decreased” and the “manifestations of eosinophilic fasciitis” value (IL-6 receptor; at 6 months, Espinoza et al. 2015) is listed as “remission of both articular and cutaneous manifestations”. The “disease remission, severe multisystemic microscopic polyangiitis” value (IL-6 receptor; one patient, Berti et al. 2015) was “complete and sustained disease remission”, the treatment of uveitis (IL-6 receptor; patients, Mesquida et al. 2014) was “effective” and the “inflammatory response and quality of life measures, Cogan's syndrome” value (IL-6 receptor; person, relapsed after prednisone, Shibuya et al. 2013) was “successfully improved”.
